One data set has as its system HSA and AGP. Briefly: in vitro. The note with it: human, plasma.
For data set [1], the system named is mice. Briefly: Subcutaneous pentylenetetrazole (scPTZ) seizure test. The following applies: 100 mg/kg i.p.; for scPTZ: number of mice protected/number of mice tested: 0.5 h. It is filed as in vivo. The source says: (§1) These parameters were then used to calculate the protective indexes (PIs, PI = TD50/ED50), which describe the therapeutics window of potential drug candidates. The ED50, TD50, and PI values for the tested compounds together with data of their chemical prototypes KA-11 and KJ-5 and reference ASMs are summarized in Table 2.
(§2) In the initial screening studies, four mice per group were randomly assigned to each experimental group (each mouse was used only once). To evaluate the ED50 or TD50 values, four groups consisting of eight animals were injected with various doses of tested compounds. The protective indexes (PIs) for the compounds investigated and reference ASMs were calculated by dividing the TD50 value, as determined in the chimney test, by the respective ED50 value, as determined in the MES, scPTZ, or 6 Hz (32 or 44 mA) tests (PI = TD50/ED50). The PIs are a measure of the potential therapeutic window of the tested agent.
(§3) All substances were suspended in Tween 80 (1% aqueous solution) and administered i.p. as a single injection at a dose of 10 mL/kg. On each day of experimentation, fresh solutions were prepared. The detailed in vivo procedures are described elsewhere: the maximal electroshock seizure test (MES),[60] the subcutaneous pentylenetetrazole seizure test (scPTZ),[61] the 6 Hz psychomotor seizure model (32 and 44 mA),[62] and the chimney test.[63] The reference ASMs were purchased from commercial suppliers: VPA (Sigma-Aldrich, St. Louis, MO), LCS, and LEV (UCB Pharma, Braine l’Alleud, Belgium).

Data set [2] has as its system mice. Nature of the data set: Maximal electroshock (MES) seizure test. It is filed as in vivo. The following applies: for responders at 100 mg/kg / ED50: Mus musculus, ip; for responders at 100 mg/kg: read-out: MES: number of mice protected/number of mice tested (converted); for ED50: mice, pretreatment 0.5 h.
Text: (§4) Identification and profiling of new ASM candidate compounds are still largely based on predictive animal models of seizures/epilepsy, while a range of in silico and in vitro approaches (i.e., molecular modeling or high throughput screening, etc.) are increasingly used in the early stages of ASM discovery.[31] The Epilepsy Therapy Screening Program (ETSP) of the National Institute of Neurological Disorders and Stroke (NIH, Bethesda, MD) has enabled the discovery of several approved ASMs by focusing on the in vivo testing of compounds synthesized by both academic laboratories and industry.[32] The ETSP provides a broad panel of seizure tests (ca. 30 rodent models), but a subset of them is used for the initial screening of new compounds with potential antiseizure activity. The routinely used seizure models include: (i) the MES test, which is an experimental model of tonic–clonic seizures, (ii) the 6 Hz model (32 mA) of focal seizures, and (iii) the scPTZ model of generalized absence or myoclonic seizures.[33],[34] Consequently, in the current studies, all final compounds 21–36 and 45–48 were initially studied in the MES and the 6 Hz (32 mA) seizure models after intraperitoneal (i.p.) administration at a screening dose of 100 mg/kg in mice at a time point of 0.5 h (the screening group consisted of four mice, and the results obtained are summarized in Table S1).
as §1
(§5) The adult male Albino Swiss mice weighed between 22 and 26 g were used in the in vivo studies. They were housed under standardized housing conditions in colony cages and had free access to food as well as tap water. The animals were left to adapt under laboratory conditions for 7 days. All procedures involving animals and their care were performed in accordance with the current European Community and Polish legislation on animal experimentation.
as §2, §3

Data set [3] concerns human liver microsomes (HLMs). Briefly: Metabolic stability in human liver microsomes. It is filed as in vitro ADME. The source says:
Molecular mass Molecular mass of the
Substrate (m/z) metabolite (m/z) Metabolic pathway
* Reference unstable drug; metabolic stability determined using the same procedure published previously

The subject of data set [4] is mice. Briefly: 6 Hz (32 mA) psychomotor seizure model. Type of data set: in vivo. The note with it: Mus musculus, ip; for responders at 100 mg/kg: 100 mg/kg i.p., 0.5 h; for ED50: mice, pretreatment 0.5 h.
Text: as §4, §1, §5, §2, §3

The target in another data set is CYP3A4 (Homo sapiens, UniProt P08684). The following applies: 1 μM.
The test system of data set [5] is mice. Nature of the data set: 6 Hz (44 mA) model of pharmacoresistant seizures. Type of data set: in vivo. The following applies: Mus musculus, ip, pretreatment 0.5 h. How it is done:
Based on the promising pharmacological data for 26 and 28, and especially potent protection in the 6 Hz (32 mA) seizure model, both compounds were tested subsequently in the 6 Hz seizure model, applying a higher current intensity of 44 mA (Table 3). Importantly, this test is recognized as one of the key animal models of pharmacoresistant seizures, utilized in the early stage of new ASMs’ development.
as §2
All substances were suspended in Tween 80 (1% aqueous solution) and administered i.p. as a single injection at a dose of 10 mL/kg. On each day of experimentation, fresh solutions were prepared. […]

A further data set has as its system NMDA. Nature of the data set: NMDA binding (antagonist radioligand). The following applies: 100 μM, rat cerebral cortex. How it is done:
(§6) Binding/functional studies were carried out commercially in Eurofins Laboratories (Poitiers, France) and Eurofins Panlabs Discovery Services Taiwan, Ltd. (New Taipei City, Taiwan) using testing procedures that were reported previously (for details, see Table S2).
Table S2. Radioligand binding and functional assays.
NMDA (antagonist radioligand) […]
(§7) Potassium channel (hERG) […]
(§8) Assays were performed commercially in Eurofins Laboratories ( Poitiers, France) or Eurofins Panlabs Discovery Services
(§9) Taiwan, Ltd. (New Taipei City, Taiwan).

The target of the next data set is T1, hERG potassium channel (Homo sapiens, UniProt Q12809).
T1 construct: Eurofins (contract assay)
Nature of the data set: hERG potassium channel binding. The following applies: HEK-293 cells expressing human recombinant hERG, human recombinant HEK-293 cell, read-out: % inhibition of control specific binding.
Text: Moreover, we also evaluated its influence on the potassium channel (hERG), which is known to be one of the most critical “off-targets” responsible for the harmful proarrhythmic activity of drugs and drug candidates.[56] […] The latter result is particularly important, since it minimizes the risk of potential proarrhythmic activity of 28. Despite this positive result, more detailed off-target profiling is undoubtedly necessary in the next steps of preclinical development.
as §6
(§10) Table S2. Radioligand binding and functional assays. […]
as §7, §8, §9

Another data set deals with GABAA transporter. Briefly: GABA transporter binding (antagonist radioligand). The following applies: 100 μM, rat cerebral cortex. How it is done:
as §6, §10
GABA transporter (antagonist radioligand) […]
as §7, §8, §9

For the next data set, the system named is GABAA ion channel. Briefly: GABAA ion channel [3H]GABA binding (agonist radioligand). The note with it: 100 μM, rat hippocampus. How it is done: as §6, §10
GABAA ion channel [3H]GABA (agonist radioligand)
as §7, §8, §9

The next data set has as its system AMPA. Briefly: AMPA binding (agonist radioligand). The following applies: 100 μM, rat cerebral cortex. How it is done: as §6, §10
AMPA (agonist radioligand) […]
as §7, §8, §9

Where [6] appears, read: four mice, read-out: protection in 6 Hz (32 mA) screening.
[7] abbreviates: read-out: 6 Hz (32 mA): number of mice protected/number of mice tested (converted).

Chain of CYP3A4 (P08684 whole entry): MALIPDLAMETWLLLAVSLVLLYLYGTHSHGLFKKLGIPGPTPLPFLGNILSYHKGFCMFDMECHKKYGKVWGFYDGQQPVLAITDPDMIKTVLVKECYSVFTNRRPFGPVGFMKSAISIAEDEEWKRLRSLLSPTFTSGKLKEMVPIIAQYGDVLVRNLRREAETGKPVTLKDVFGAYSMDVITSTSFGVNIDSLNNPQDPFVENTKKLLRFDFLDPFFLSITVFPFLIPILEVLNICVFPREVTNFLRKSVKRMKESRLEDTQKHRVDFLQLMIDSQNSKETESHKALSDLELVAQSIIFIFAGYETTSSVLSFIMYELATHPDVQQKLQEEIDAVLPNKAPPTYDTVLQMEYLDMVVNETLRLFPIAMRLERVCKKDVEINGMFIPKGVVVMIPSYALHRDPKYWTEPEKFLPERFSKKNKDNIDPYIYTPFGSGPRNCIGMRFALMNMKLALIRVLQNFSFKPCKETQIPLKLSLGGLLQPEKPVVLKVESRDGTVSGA
T1 sequence (Q12809 whole entry): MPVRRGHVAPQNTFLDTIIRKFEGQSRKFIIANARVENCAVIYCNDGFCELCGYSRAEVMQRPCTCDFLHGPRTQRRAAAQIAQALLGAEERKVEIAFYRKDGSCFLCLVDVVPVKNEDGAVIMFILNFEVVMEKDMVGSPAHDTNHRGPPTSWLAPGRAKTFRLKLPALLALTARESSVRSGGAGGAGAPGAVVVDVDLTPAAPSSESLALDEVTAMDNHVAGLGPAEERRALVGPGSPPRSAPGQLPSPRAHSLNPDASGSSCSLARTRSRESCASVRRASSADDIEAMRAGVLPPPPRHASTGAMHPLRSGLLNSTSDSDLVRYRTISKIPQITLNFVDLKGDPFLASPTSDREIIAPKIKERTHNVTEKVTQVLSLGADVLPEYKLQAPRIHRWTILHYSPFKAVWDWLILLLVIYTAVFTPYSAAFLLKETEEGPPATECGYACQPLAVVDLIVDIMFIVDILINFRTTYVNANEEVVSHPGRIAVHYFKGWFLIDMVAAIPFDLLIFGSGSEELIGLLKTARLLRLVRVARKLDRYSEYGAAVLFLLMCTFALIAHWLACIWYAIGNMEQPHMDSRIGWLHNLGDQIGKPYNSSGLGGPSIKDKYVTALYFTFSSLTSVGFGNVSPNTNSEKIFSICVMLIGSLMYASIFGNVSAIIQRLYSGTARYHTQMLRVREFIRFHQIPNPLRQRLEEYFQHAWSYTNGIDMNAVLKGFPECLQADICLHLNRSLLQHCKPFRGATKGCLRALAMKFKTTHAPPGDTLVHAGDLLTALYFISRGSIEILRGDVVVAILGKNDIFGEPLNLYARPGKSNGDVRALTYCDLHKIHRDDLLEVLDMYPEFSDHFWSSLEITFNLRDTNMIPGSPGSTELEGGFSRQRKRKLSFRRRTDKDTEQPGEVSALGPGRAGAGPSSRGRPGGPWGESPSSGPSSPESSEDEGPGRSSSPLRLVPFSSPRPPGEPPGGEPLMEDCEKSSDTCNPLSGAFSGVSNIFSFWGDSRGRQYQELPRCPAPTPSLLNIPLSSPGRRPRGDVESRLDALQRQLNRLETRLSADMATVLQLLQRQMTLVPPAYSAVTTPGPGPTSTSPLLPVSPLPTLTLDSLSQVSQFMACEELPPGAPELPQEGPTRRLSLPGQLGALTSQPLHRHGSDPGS
Method for HSA and AGP: The plasma protein binding: human serum albumin (HSA) and α1-acid glycoprotein (AGP) was evaluated by the commercial TRANSIL^XL PPB assay.

`CC(=O)NC(C)C(=O)N1CCN(c2cccc(C(F)(F)F)c2)CC1` (stereo not drawn) [Compound 26, N-(1-oxo-1-(4-(3-(Trifluoromethyl)phenyl)piperazin-1-yl)propan-2-yl)acetamide] gave a fraction unbound in the data set with HSA and AGP of 0.214. The “protection in scPTZ screening” value in the data set with mice [1] came out at 25%. The “scPTZ: number of mice protected/number of mice tested” value in the data set on mice [1] is 1/4. In addition, the “antiseizure protection in MES screening” value with mice [2] (100 mg/kg i.p., 0.5 h, four mice) worked out at 100%. The responders at 100 mg/kg with mice [2] (100 mg/kg i.p., 0.5 h) is 100%; with mice [4] (setting [6]), 100%; in the data set with mice [4] (setting [7]), 100%. Also, the ED50 in the data set with mice [2] was found to be 64.3 mg/kg; in the data set with mice [4], 15.6 mg/kg; in the data set with mice [5], 29.9 mg/kg. The “number of metabolites found after incubation with HLMs” value in data set [3] was “two”. The “metabolic pathway of metabolite M1” value in [3] (MS supported by MetaSite) was “dehydrogenation and oxidation”. The “metabolic pathway of metabolite M2” value in [3] (MS supported by MetaSite) is “dehydrogenation and oxidation”. On CYP3A4, the “CYP3A4 activity (% of control ± SD)” value was 114.1 ± 8.7%.
Take `CC(=O)NC(C)C(=O)N1CCN(c2cccc(OC(F)(F)F)c2)CC1` (stereo not drawn) [Compound 28, N-(1-oxo-1-(4-(3-(Trifluoromethoxy)phenyl)piperazin-1-yl)propan-2-yl)acetamide]: the fraction unbound with HSA and AGP is 0.17. The “protection in scPTZ screening” value with mice [1] was 25%. In addition, the “scPTZ: number of mice protected/number of mice tested” value in the data set with mice [1] is on record as 1/4. Further, the responders at 100 mg/kg in the data set with mice [2] (100 mg/kg i.p., 0.5 h) was 100%; with mice [4] (setting [6]), 100%; with mice [4] (setting [7]), 100%. Further, the ED50 in the data set with mice [2] is 34.9 mg/kg; with mice [4], 12.1 mg/kg; in the data set on mice [5] it was 29.5 mg/kg. In addition, the “% inhibition of control specific binding” value with NMDA was 5.0%; in the data set with GABAA transporter it was 15.0%; in the data set on GABAA ion channel, 10.0%; in the data set with AMPA, “–21.0%”. Further, the inhibition at 100 µM on hERG potassium channel is 12.9%. For the same compound, the “number of metabolites found after incubation with HLMs” value in data set [3] is given as “three”. Further, the “metabolic pathway of metabolite M1” value in data set [3] (MS supported by MetaSite) was “double dehydrogenation”. In [3] (MS supported by MetaSite), the “metabolic pathway of metabolite M2” value is on record as “hydroxylation”. Besides, the “metabolic pathway of metabolite M3” value in [3] (MS supported by MetaSite) is given as “double dehydrogenation”. For the same compound, the “CYP3A4 activity (% of control ± SD)” value at CYP3A4 is listed as 91.3 ± 12.7%.

The values above are taken from paper PMC11157491, “Novel Alaninamide Derivatives with Drug-like Potential for Development as Antiseizure and Antinociceptive Therapies—In Vitro and In Vivo Characterization” (ACS Chemical Neuroscience, 2024).
